Measured values: patent US7517881B2, “Triazine derivatives, their preparation and therapeutic application thereof” (Aventis Pharma S.A., priority 2005, dated 2009)

Target: T1, nicotinic receptors containing the α7 subunit (Rattus norvegicus, UniProt Q05941)
T1 construct: displace the [^3H]-MLA bond on the rat hippocampus membranes; from tissue; host or cells: hippocampus of female Sprague-Dawley rats (membrane preparation)
Experiment: binding to nicotinic receptors containing the α7 subunit, competition versus [3H]-methyllycaconitine on rat hippocampus membranes
Settings: apparent affinity constant by Cheng and Prusoff, displacement of 5 nM [3H]-MLA, 2 hours at about 20° C.
Procedure: The compounds of the invention were tested for their ability to bind the nicotinic receptors containing the α7 subunit using a test of binding to preparations of rat brain membranes according to the methods described hereunder:
Frozen specimens of hippocampus from the brain of female Sprague-Dawley rats were stored at −20° C. until used. The hippocampi from 10 rats were combined and homogenized using a pulverizer of the Polytron type in 10 volumes of an ice-cooled buffer with the following composition: KCl (11 mM); KH2PO4 (6 mM); NaCl (137 mM); Na2HPO4 (8 mM); HEPES (20 mM); iodoacetamide (5 mM); EDTA (1.5 mM); PMSF (0.1 mM). The pH was adjusted to 7.4 with NaOH. […]
The binding of the compounds of the invention for receptors containing the α7 subunit was measured by competition versus [^3H]-methyllycaconitine ([^3H]-MLA), a radiolabeled tracer which recognizes the α7 receptors (Davies et al., Neuropharmacology 1999, 38, 679-690) according to conventional methods adapted to the format of 96-well plates. The ability of the compounds of the invention to displace the [^3H]-MLA bond on the rat hippocampus membranes was determined in duplicate after incubation for 2 hours at a temperature close to 20° C. […] The non-specific binding was determined in specific wells containing 10 μM of non-radiolabeled MLA. […]

T1 sequence (Q05941 23-502): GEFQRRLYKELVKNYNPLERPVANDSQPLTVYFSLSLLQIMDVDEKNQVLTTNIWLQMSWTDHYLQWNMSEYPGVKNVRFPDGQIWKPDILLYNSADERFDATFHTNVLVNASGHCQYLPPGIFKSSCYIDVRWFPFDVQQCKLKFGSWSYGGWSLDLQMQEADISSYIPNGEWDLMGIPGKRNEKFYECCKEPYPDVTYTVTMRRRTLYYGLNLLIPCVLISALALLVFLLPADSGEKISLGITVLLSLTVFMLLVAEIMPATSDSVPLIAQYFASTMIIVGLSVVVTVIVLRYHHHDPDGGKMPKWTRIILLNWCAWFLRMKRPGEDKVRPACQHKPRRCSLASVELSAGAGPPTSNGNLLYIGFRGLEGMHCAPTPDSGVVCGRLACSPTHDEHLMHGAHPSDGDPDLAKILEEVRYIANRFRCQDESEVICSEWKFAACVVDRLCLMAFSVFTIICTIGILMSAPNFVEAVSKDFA

| Ki | Structure (SMILES) |
| --- | --- |
| 957 nM | CCN(CC)CCCNc1nnc(-c2csc3ccccc23)c(=O)[nH]1 [Compound No. 12, 6-(benzothiophen-3-yl)-3-(3-diethylaminopropylamino)-4H-1,2,4-triazin-5-one] |
| 737 nM | CCN(CC)CCCNc1nnc(-c2cn(-c3ccccc3)c3ccccc23)c(=O)[nH]1 [Compound No. 11, 6-(1-phenyl-indol-3-yl)-3-(3-diethylaminopropylamino)-4H-1,2,4-triazin-5-one] |
